US20070059364A1, “Active substance combination comprising a compound with npy receptor affinity and a compound with 5-ht6 receptor affinity” (Laboratorios Del Dr. Esteve S.A., priority 2003, published 2007)
pIC50, pKi: −log10 of the molar value. Structures can show the parent of a compound that is named as a salt.

Assays:
[1] = target: T1, recombinant human 5HT6 receptor (Homo sapiens, UniProt P50406); test: Binding to the 5HT6 serotonin receptor, [3H]-LSD, HEK-293 cell membranes
T1 construct: purchased Receptor Biology; host or cells: HEK-293 cell membranes
Protocol: Binding to the 5HT6 Serotonin Receptor
The respective part of the literature descriptions is incorporated here by reference and form part of the disclosure. […] The assays are carried out in triplicate.

[2] = target: T2, rat Y5 receptor (Rattus norvegicus, UniProt Q63634); test: Neuropeptide Y5 receptor binding, Method (II), [125I]-PYY, C6 cells transfected with rat Y5 receptor; conditions: Y5 rat recombinant receptor, cell C6
T2 construct: expressed in transfected cells; host or cells: C6 cells
T2 sequence (Q63634 1-445): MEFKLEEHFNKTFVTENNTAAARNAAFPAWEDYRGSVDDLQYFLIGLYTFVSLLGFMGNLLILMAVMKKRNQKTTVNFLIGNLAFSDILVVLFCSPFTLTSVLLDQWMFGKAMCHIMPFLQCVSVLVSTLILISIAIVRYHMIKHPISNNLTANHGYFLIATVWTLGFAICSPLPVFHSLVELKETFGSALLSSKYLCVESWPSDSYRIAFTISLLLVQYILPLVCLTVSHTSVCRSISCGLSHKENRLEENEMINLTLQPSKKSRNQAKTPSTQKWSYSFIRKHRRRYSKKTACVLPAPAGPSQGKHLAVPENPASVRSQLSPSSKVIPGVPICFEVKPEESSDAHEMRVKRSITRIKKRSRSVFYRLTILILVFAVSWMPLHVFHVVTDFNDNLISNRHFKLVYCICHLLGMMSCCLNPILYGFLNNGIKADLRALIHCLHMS
Protocol: Neuropeptide Y5 Receptor Binding Studies:
The experimental protocol follows the method described by Y. Hu, B. T. Bloomquist et al. in Y. Hu, B. T. Bloomquist et al., The Journal of Biological Chemistry, 1996, 271, 26315-26319 with modifications. Cells C6 were transfected with the rat Y5 receptor. The cells were grown under standard culture conditions in 150 cm^2 dishes and they were harvested using a rubber scraper and 10 ml PBS. The cells from five dishes were collected and centrifuged 2.500 g for 5 min. The pellet was washed by resuspending in 3 ml buffer (Tris-HCl 10 mM, pH 7.4), homogenized using a Potter S homogenizer, 10 strokes at 600 rpm and centrifuged in cold conditions at 48.000 g for 20 min (4° C.). The resulting pellet was resuspended in cold 8 ml membrane buffer (Tris-HCl 25 mM, NaCl 120 mM, KCl 5 mM, KH2PO4 1, 2 mM, CaCl2 2, 5 mM, MgSO4 1, 2 mM, BSA 0.15 mg/ml, Bacitracine 0.5 mg/ml, pH 7, 4) and rehomogenized using the Potter S, 10 strokes at 600 rpm. The protein concentration of the used membrane in the incubation was approximately 40 μg/ml. The radioligand is [^125I]-PYY in a concentration of 100 pM. The incubation volume is 200 μl. […] Non-specific binding is determined in the presence of 1 μM of NPY. […]

[3] = target: T3, Neuropeptide Y2 receptor (Rattus norvegicus, UniProt Q9ERC0); test: Binding to Neuropeptide Y2, Method (III), [125I]-PYY3-36, rat hypoccampus membranes; conditions: [125I]-PYY(3-36)
T3 construct: from tissue; host or cells: rat hippocampus membranes (male Wistar rats)
T3 sequence (Q9ERC0 1-381): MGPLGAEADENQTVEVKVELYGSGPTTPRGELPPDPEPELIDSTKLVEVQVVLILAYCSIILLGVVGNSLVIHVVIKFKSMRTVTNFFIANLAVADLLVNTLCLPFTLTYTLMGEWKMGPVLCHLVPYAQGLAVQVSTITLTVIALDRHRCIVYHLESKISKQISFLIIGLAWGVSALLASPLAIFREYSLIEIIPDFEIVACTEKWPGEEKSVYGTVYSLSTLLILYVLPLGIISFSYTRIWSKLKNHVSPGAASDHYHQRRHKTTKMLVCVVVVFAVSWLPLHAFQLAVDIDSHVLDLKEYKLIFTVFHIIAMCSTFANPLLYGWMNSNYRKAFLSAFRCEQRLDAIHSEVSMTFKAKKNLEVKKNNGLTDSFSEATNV
Protocol: Binding to Neuropeptide Y2
(§1) Male Wistar rats are sacrificed by decapitation, their brains are rapidly removed and the hypoccampus is dissected. Homogenization is performed in cold conditions in the buffer: 120 mM NaCl, 4.7 mM KCl, 2.2 mM CaCl2, 1.2 mM KH2PO4, 1.2 mM MgSO4, 25 mM NaHCO3, 5.5 mM glucose, pH 7.4, by means of a Ultra-Turrax homogenizer for 15 seconds at 13,500 rpm. The ratio between fresh tissue weight and buffer volume is of ten times. The membrane is centrifuged for 10 min at 48,000 g. The supernatant is discarded and the pellet is washed, resuspended and recentrifuged two more times. The final membrane resuspension is performed in the buffer: 120 mM NaCl, 4.7 mM KCl, 2.2 mM CaCl2, 1.2 mM KH2PO4, 1.2 mM MgSO4, 25 mM NaHCO3, 5.5 mM glucose, 0.1% BSA, 0.05% bacitracin, pH 7.4, at a 90 ml/g ratio of fresh issue. […] Incubation volume: 500 μl. […] The filters are cold-washed three times with three milliliters of the same buffer used in homogenization. […] Non-specific binding is determined in the presence of 1 μM of pNPY (Neuropeptide Y of porcine origin). The assays are performed in triplicate.

[4] = target: T4, Neuropeptide Y5 receptor (Rattus norvegicus, UniProt Q63634); test: Neuropeptide Y5 receptor binding, Method (I), [125I]-PYY3-36 with BIBP 3226, rat cortex membranes; conditions: [125I]-PYY(3-36), BIBP 3226 sat.
T4 construct: from tissue; host or cells: rat brain cortex membranes (male Wistar rats)
T4 sequence (Q63634 1-445): T2 sequence (Q63634 1-445)
Protocol: as §1, with “the cortex” for “the hypoccampus”, “of twenty” for “of ten”, “recentrifuged three” for “recentrifuged two”, “times.” for “times. The final membrane resuspension is performed in the buffer: 120 mM NaCl, 4.7 mM KCl, 2.2 mM CaCl2, 1.2 mM KH2PO4, 1.2 mM MgSO4, 25 mM NaHCO3, 5.5 mM glucose, 0.1% BSA, 0.05% bacitracin, pH 7.4, at a 90 ml/g ratio of fresh issue.”, “with two” for “with three”

T1 sequence (P50406 whole entry): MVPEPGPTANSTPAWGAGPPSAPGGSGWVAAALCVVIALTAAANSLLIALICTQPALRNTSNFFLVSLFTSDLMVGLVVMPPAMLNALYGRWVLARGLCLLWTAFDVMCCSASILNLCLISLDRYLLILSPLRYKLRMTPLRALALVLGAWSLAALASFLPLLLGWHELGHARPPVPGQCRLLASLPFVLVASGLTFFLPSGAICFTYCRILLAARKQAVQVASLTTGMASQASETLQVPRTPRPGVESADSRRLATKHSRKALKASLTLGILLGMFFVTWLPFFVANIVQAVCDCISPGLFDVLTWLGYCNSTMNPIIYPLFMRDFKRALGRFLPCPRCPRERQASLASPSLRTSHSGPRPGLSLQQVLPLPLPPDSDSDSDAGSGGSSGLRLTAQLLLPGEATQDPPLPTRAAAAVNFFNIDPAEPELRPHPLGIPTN

Row | SMILES | melting point | pKi [3] | further results
1 | CN(C)CCn1ccc2ccc(NS(=O)(=O)c3ccc(-c4ccccc4)cc3)cc21 [Example 5f, N-[1-(2-Dimethylaminoethyl)-1H-indol-6-yl]-4-phenylbenzenesulfonamide] |  |  | pKi ([1]; compounds of general formula (If), Table 1f): 6.89
2 | O=C(CN1CCC(N2C(=O)OCc3cc(F)ccc32)CC1)Nc1ccc2ncccc2c1 [Example 111a, 2-[4-(6-Fluoro-2-oxo-4H-benzo[d][1,3]oxazin-1-yl)-piperidin-1-yl]-N-quinolin-6-yl-acetamide] |  |  | pIC50 [2]: 8.11
3 | Cl.O=C(CN1CCC(N2C(=O)OCc3ccccc32)CC1)Nc1ccc2c(c1)-c1ccccc1C2=O [Example 3a, 2-[4-(2-oxo-4H-benzo[d][1,3]oxazin-1-yl)-piperidin-1-yl]-N-(9-oxo-9H-fluoren-3-yl)-acetamide hydrochloride] | > 275 °C | < 6.00 | 
4 | Cc1ccc2c(c1)COC(=O)N2C1CCN(CC(=O)Nc2ccc3c(c2)-c2ccccc2C3=O)CC1.Cl [Example 20a, 2-[4-(6-methyl-2-oxo-4H-benzo[d][1,3]oxazin-1-yl)-piperidin-1-yl]-N-(9-oxo-9H-fluoren-3-yl)-acetamide hydrochloride] | 250 to 252 °C | < 6.00 | 
5 | O=C(CN1CCC(N2C(=O)OCc3ccccc32)CC1)Nc1ccc2c(c1)CCCC2=O [Example 6a, 2-[4-(2-oxo-4H-benzo[d][1,3]oxazin-1-ylipiperidin-1-yl]-N-(5-oxo-5,6,7,8-tetrahidro-naphthalene-2-yl)-acetamide hydrochloride] |  | < 6.00 | pKi [4]: 7.74
6 | CN(C)CCn1ccc2c(NS(=O)(=O)CCc3cccc4ccccc34)cccc21 [Example 5d, N-[1-(2-dimethylaminoethyl)-1H-indole-4-yl]-2-(naphthalene-1-yl)-ethanesulfonamide] | 47 to 54 °C |  | inhibition at 1 µM ([1]; 10^−6 M, compounds of general formula (Id), Table 1d): 98.1%
